Measurements from US7700353B2, “Compositions and methods for inducing apoptosis in tumor cells” (E-P Therapeutics, Inc., priority 1998, dated 2010).

Experiments:
[1] = tested on: MCF-7, HT-29, HepG2, ZR-75-1, SK-N-F1, or HC cells; experiment: Morphological change assay in tumor cell lines; assay type: cell-based, human and fish; details: 2.5 nM, 24 hours, serum-free basal medium
Experimental: (§1) Approximately 1-2×10^5 of MCF-7, ZR-75-1, HT-29, HepG2, 293GP, HC or SK-N-F1 cells re-suspended in their respective basal medium without fetal bovine serum (FBS) were plated in a 6-well culture chamber. Prior to plating cells, an acid-washed coverslip was placed in each well of the culture chamber. Recombinant rainbow trout E-peptides (rtEa-2, rtEa-3 or rtEa-4 peptide at 0.8 µM), human IGF-I (hIGF-1, 2.5 nM) or the same amount of control protein was added to each well and the cell cultures were incubated at 37° C. under a humidified atmosphere of 5% CO2. The control protein was prepared from E. coli cells carrying the expression plasmid but without the E-peptide gene according to the purification method described by Tian et al. (1999). Coverslips were removed from the culture chamber 24 hours after initiation of the treatment and observed under an Olympic inverted microscope equipped with differential interference phase contrast objective lenses or phase contrast objective lens (final magnification, 200×). The morphological change assay was performed at least 10 times with different batches of Ea-4 peptide preparations.
Oncogenic transformed or established cancer cells derived from human and fish (MCF-7, HT-29, HepG2, ZR-75-1, SK-N-F1, or HC cells) were plated in their respective serum-free basal medium supplemented with 0.8 µM of the trout recombinant Ea-4-peptide, with the control protein, or with 2.5 nM of the recombinant hlGF-I and the cultures were examined 24 hours later under an inverted microscope equipped with differential interference phase contrast objectives. […] The rtEa-4 peptide treated cells developed several pseudopodia-like structures to establish contact with neighboring cells similar to that seen in untransformed or non-malignant cells.
Because each of these tumor cell lines obtained from ATCC contains a mixed population of tumorous and nontumorous cells, only between 25-40% of the cells from each cell line responded to induction by rtEa-4-peptide. […]

[2] = tested on: SK-N-F1 neuroblastoma cells; experiment: Neurite-like process outgrowth / morphological differentiation; assay type: cell-based, human; details: 5 nM
Experimental: Cells under various treatment conditions were maintained at 37° C. in a 5% CO2 incubator and observed from 30 minutes to 72 hours after incubation (synthetic human Ea- and Eb-peptide were chemically synthesized at the Biotechnology Center, University of Connecticut). For treatment with synthetic hEa, hEb peptide or hlGF-I, 1×10^5 cells were plated in each well of a 12-well culture plate in DMEM/F12 (1:1) supplemented with 0.4-3.2 µM of synthetic hEa-, hEb-peptide and/or 5-10 nM of hlGF-I.
Neuroblastoma SK-N-F1 cells (10^5) were seeded into 12-well culture plates in DMEM/F12 (1:1) supplemented with 0-3.2 µM of synthetic hEb-peptide, or buffer control, and incubated at 37° C. in a 5% CO2 humidified incubator.
Cell images were taken by random sampling at various time points using a MicroMAX CCD camera (Princeton Instruments, Bozeman, Mont.). Approximately 1000 cells were analyzed from each treatment, carried out in triplicate. Cells with neurites longer than one cell body diameter (>20 µm for SK-N-F1 cells) were scored as positive neurite-bearing (Fagerstrom, et al., Cell Growth Differ., 7: 775-85, 1996; Morrione, et al., Cancer Res. 60: 2263-72, 2000). The percentage of neurite-bearing cells and the respective length of neurites were measured with reference to a stage micrometer and analyzed using the public domain NIH Image program (developed at the U.S. National Institutes of Health and available on the Internet at http://rsb.info.nih.gov/nih-image).
To further characterize the dose-response relationship and time course of hEb peptide in inducing neurite-like process outgrowth, SK-N-F1 neuroblastoma cells were treated with various amounts (0 to 3.2 µM) of hEb peptide over a course of 72 hours. Images of cells were taken by random sampling after 1 h, 6 h, 24 h, 48 h and 72 h of incubation (see FIG. 11B). The average length of neurite-like process outgrowth was measured by random sampling of more than 1000 cells at various time points. The neurite-like processes started to be visible as early as 0.5-1 hour after the addition of hEb peptide. The effect of hEb peptide in inducing neurite-like outgrowth was dose-dependent, as evident from a comparison of cells treated with 0.4 µM hEb peptide with those treated with 0.8-3.2 µM hEb peptide over 24-72 hours. The maximum effect of hEb peptide was observed 48 hours after the addition of 3.2 µM hEb peptide, with an average neurite length of 50 to 60 µm (Table 1, below).

[3] = tested on: neuroblastoma SK-N-F1 cells; experiment: Soft agar colony formation (hEb peptide); assay type: cell-based, human; details: 5 nM
Experimental: The effect of hEb-peptide on in vitro colony formation was tested in the presence or absence of either the mature hlGF-I or fetal bovine serum (FIG. 12). Human neuroblastoma SK-N-F1 cells (10^4) were mixed with 0.4% soft agar supplemented with or without hEb peptide (3.2 µM), IGF-I (5 nM) and/or fetal bovine serum (2.5%), as indicated. The cell mixtures were seeded on top of a solidified basal medium DMEM/F12 (1:1) containing 0.5% agar. Medium supplemented with various peptides or serum were overlaid on top of the solidified cell layer followed by a two-week period incubation at 37° C. in a 5% CO2 humidified incubator. The percentage of cells formed into colonies with a diameter greater than 100 µm Macpherson, Tissue culture methods and applications, pp 276-80: N.Y. Academic Press, 1973) were scored in triplicate and subjected to Student t-test analysis. At least three independent assays under each treatment conditions were carried out.

[4] = tested on: 293GP and MCF-7 cells; experiment: Effect of RNA/protein synthesis inhibitors on Ea-4 induced morphological change; assay type: cell-based, human; details: 24 hours
Experimental: To study the effects of α-aminitin and cycloheximide, known inhibitors of RNA and protein synthesis, respectively, on morphological changes induced by rtEa-4-peptide, about 1-2×10^5 of ZR-75-1 and 293GP cells, re-suspended in their respective basal medium without FBS, were plated in a 6-well culture chamber. Prior to plating the cells, an acid-washed coverslip was placed in each well of the culture chamber. Each culture was treated with recombinant trout Ea-4-peptide at 0.8 µM, and with either α-aminitin at 10 µg/mL (an RNA synthesis inhibitor) or with cycloheximide at 1.0 µg/mL (a protein synthesis inhibitor). The cell cultures were incubated at 37° C. under a humidified atmosphere of 5% CO2. Coverslips were removed from the culture chamber 24 hours after initiation of the treatment and observed under an Olympic inverted microscope equipped with differential interference phase contrast objective lenses (final magnification, 200×). The viability of the inhibitor-treated cells was further determined by a dye extrusion assay.
To determine whether the morphological changes induced by the Ea-4 peptides requires synthesis of new proteins or of RNA, 293GP and MCF-7 cells were cultured under the same conditions as described above. Ea-4 peptide-induced morphological changes in 293GP and MCF-7 cells were abolished by treatment with cycloheximide or α-aminitin (FIG. 4).

[5] = tested on: NIH 3T3 cells and caprine mammary epithelium cells (CMEC); details: recombinant peptides; cited from earlier work
[6] = tested on: 293GP or ZR-75-1 cells; experiment: Morphological change by Ea-2, Ea-3, Ea-4 peptides; assay type: cell-based, human; details: 0.8 μM, 24 hours
Experimental: as §1
Cells were again cultured as described above. Twenty-four hours after treatment with 0.8 µM of E-peptides or the control protein, the cells were observed under an Olympic inverted microscope equipped with differential interference phase contrast objective lenses (200× magnification). […] To confirm this hypothesis, synthetic peptides specific to Ea-1-, Ea-2-, Ea-3- and Ea-4-peptide (Ea-1sp, Ea-2sp, Ea-3sp and Ea-4sp) specific sequence (see FIG. 1) were prepared and tested for their activities to induce morphological change in ZR-75-1 cells. For FIG. 6, cells were cultured in F12/DME medium without FBS as described above. Twenty-four hours after treatment with 0.8 µM of synthetic peptide containing Ea-1 sp, Ea-2sp, Ea-3sp or Ea-4sp specific sequence or the control protein, the cells were observed under an Olympic inverted microscope equipped with differential interference phase contrast objective lenses (200× magnification).

[7] = tested on: cultured BALB/3T3 fibroblast; details: recombinant peptides; cited from earlier work

With “hlGF-I: recombinant mature human insulin-like growth factor I [reference compound]” the morphological change [1] was “rounded morphology”, the morphological change [2] was “remained rounded and formed aggregated clusters” and the colony formation [3] was “strongly stimulated colony formation”.

With `C[C@@H]1C[C@@H]([C@H](O)CC2CC(=O)NC(=O)C2)C(=O)[C@@H](C)C1` [cycloheximide] the “Ea-4 peptide-induced morphological changes” value ([4]; cycloheximide 1.0 μg/mL with Ea-4 0.8 μM) was “abolished”.

For .alpha.-aminitin, the “Ea-4 peptide-induced morphological changes” value ([4]; α-aminitin 10 μg/mL with Ea-4 0.8 μM) was “abolished”.

In the case of “rtEa-2: recombinant Ea-2 peptide of rainbow trout pro-IGF-I, 47 amino acid residues (SEQ ID NO: 4) (RSVRAQRHTDMPRTPKKPLSGHSHPSCKEVHQKNSSRGNTGGRNYRM; Oncorhynchus mykiss)”, the mitogenic activity [5] is listed as “possess mitogenic activity”, the “induction of morphological change” value [6] is listed as “able to induce morphological change” and the mitogenic activity [7] is listed as “possess mitogenic activity”.

B1: rtEa-3: recombinant Ea-3 peptide of rainbow trout pro-IGF-I, 62 amino acid residues (SEQ ID NO: 3) (protein)
chain: RSVRAQRHTDMPRTPKVSTAVQSVDRGTERRTAQHPDKTKPKKEVHQKNSSRGNTGGRNYRM
modifications: Oncorhynchus mykiss
For B1, the mitogenic activity [5] is listed as “possess mitogenic activity”, the “induction of morphological change” value [6] is listed as “failed to induce any visible morphological change” and the mitogenic activity [7] is listed as “possess mitogenic activity”.
